Measured values from US10350308B2, “Molecular probes for imaging myelin” (priority 2010, dated 2019).
“Also recorded” adds a separate entry of the source.

Experiments:
myelin [1] = assay: In vivo microPET-MR imaging in focal demyelination rat model
Procedure: Focal demyelination of adult rat brain. Sprague Dawley female rats (Harlan Laboratory, Indianapolis, Ind.), 12 weeks of age, were used for this study. Animal surgery and care was performed in accordance with the Institutional Animal Care and Use Committee of Case Western Reserve University Animals were anesthetized using a mixture of ketamine hydrochloride (64.2 mg/kg), xylazine hydrochloride (12.9 mg/kg), and acepromazine (12.9 mg/kg) and positioned in a stereotaxic frame (Stoelting). A small incision was made in the scalp, and the corpus callosum was targeted using the following stereotaxic coordinates, relative to bregma: anterior-posterior, 0.0 mm; medial-lateral, 2.0; and dorsal-ventral, 3.4. A small hole was drilled in the skull, and a 26 S gauge needle attached to a 10 μl Hamilton Syringe was lowered into the corpus callosum according to the dorsal-ventral coordinate. A microinjector pump (Stoelting) controlled the infusion of 6 μl of lysolethicin (lysophosphatidyl chorine) or saline at a rate of 0.25 μl/min, after which the needle was left in place for 2 min to prevent liquid reflux out of the brain parenchyma. The incision was then closed using 5-0 Ethicon sutures, and the animals were allowed to recover on a heating pad. The imaging of demyelination of the rats and vehicles were performed 5 d after surgery. The rats were kept alive.
Animals were placed in a Concord R4 microPET scanner (Knoxyille, Tenn.) under anesthesia. After a 10 min transmission scan with a Co-57 source, 7.4 MBq of [11C]DAS were administered to each animal through a tail vein injection, which was immediately followed by dynamic acquisition for up to 90 min. A 2-D filtered back projection (FBP) algorithm was used for image reconstruction with a 256×256 pixel resolution per transverse slice. A total of 63 transverse slices were reconstructed with the field of view covering the head of the animals. Decay correction, attenuation correction and scatter correction were all performed during the image histogram and reconstruction processes.
All MR imaging experiments were performed on a Bruker Biospec 7.0T/30 cm MRI and Spectroscopy scanner (Bruker Biospin, Billerica, Mass.). The animal's head was positioned in a 72-mm volume ID cylindrical transceiver coil. […]
Coregistration of MRI and PET images, PET and CT images were conducted by using the MATLAB-based program COMKAT (Compartmental Model Kinetic Analysis Tool). […] After creating uniform images from the PET and MRI images, VOI (Volume of interest) and ROI (Region of interest) were defined and used to measure the radioactivity concentration in the corpus callosums of both hypomyelinated and wild type mice. […]
The radioactivity was decay-corrected and normalized by the body weight of the mice and the amount of [^11C] […]

[2] = Brain permeability by co-registration of fluorescent and X-ray images; assay type: in vivo; settings: 0.1 mg/kg i.v., 20 minutes post injection, wild-type mice
Procedure: The fur of the mouse was shaved to avoid the problem of autofluorescence. 20 minutes after the i.v. injection of CNIR 0.1 mg/kg, the mouse was anesthetized utilizing isoflurane gas. The mouse was positioned on the center of the platen and imaged via fluorescence (ex 760 em 790) and X-ray. Vertical Resolution: 885 ppi, horizontal Resolution: 885 ppi. To determine the brain permeability of CNIR, we administered CNIR to wild-type mice through intravenous injection in tail vein. At 20 minutes post injection of CNIR (0.1 mg/kg), both X-ray and fluorescent images of the mouse brain were acquired using KODAK In-Vivo Multispectral System FX (FIG. 3). Co-registration of high quality X-ray image and fluorescent image confirmed that the strong fluorescence was indeed emitted from inside the brain.

myelin [3] = assay: In vivo NIRF imaging in hypermyelinated mouse model; parameters: species or system Plp-Akt-DD mice and wild-type mice; settings: 0.1 mg/kg i.v.
Procedure: The in vivo Near-infrared fluorescence imaging was carried out using Xenogen IVIS Imaging System 200, (Caliper Life Science, Inc., Hopkinton, Mass.). To avoid the influence of the autofluorescence and light scattering due to the fur, all the mice were shaved before experiment. After the i.v. injection of CNIR 0.1 mg/kg, the mouse was anesthetized utilizing isoflurane gas, the mouse was positioned on the center of the stage (working temperature 20-40° C.). The Near-infrared images were acquired by Back-thinned, back-illuminated grade 1 CCD, which is thermoelectrically cooled to −90° C. ensuring low dark current and low noise. The fluorescent filter set for excitation was 705-780 nm, for emission was 810-885 nm. The experiments were controlled with Living Image 3.1 (Caliper Life Science. Inc., Hopkinton, Mass.). Lens: f/2. Field of view: 6.5 cm×6.5 cm. Imaging Pixels: 2048×2048. Exposure time: 0.5 s for all the images. The near-infrared images were evaluated by Living Image 3.1 (Caliper Life Science. Inc., Hopkinton, Mass.). All the images used photon as the unit for the quantification, and the images were shown as overlaid photograph with fluorescence. Statistical analysis was performed using two-tailed t-test with GraphPad Prism 5, (GraphPad Software, Inc., La Jolla, Calif.). CNIR (0.1 mg/kg) and vehicle (0.05% DMSO/PBS (V/V)) was first administered to the hypermyelinated mouse model through intravenous injected in the tail vein. The fluorescence signals were recorded at 2, 4, 6, 8, 10, 15, 20, 25, 30, 40, 50, 60, 70, 80, 90, 100, 110 and 120 min post injection. To exclude the influence of autofluorescence from the mouse tissues and impact from the solution, the vehicle (0.05% DMSO/PBS (V/V)) also injected and fluorescence was recorded at 2, 4, 6, 8, 10, 15, 20, 25, 30, 40, 50, 60, 70, 80, 90, 100, 110 and 120 min to compare with the CNIR solution (images not shown). […]

myelin [4] = assay: In vivo NIRF imaging in shiverer mouse model; parameters: species or system shiverer mice and wild-type mice; settings: for fluorescent intensities in the brain, shiverer versus wild-type mice / time of peak fluorescent signal in shiverer mice / average radiance in wild-type mice relative to shiverer mice: 0.1 mg/kg i.v.; for time of peak fluorescent signal in shiverer mice: brain; for average radiance in wild-type mice relative to shiverer mice: at 30 minutes, after deducting vehicle signals
Procedure: We then evaluated the pharmacokinetic profiles of CNIR in 3-month old female shiverer mice (n=3) and age-matched wild-type mice (n=2). The in vivo NIR imaging was conducted using the same dosage as in the hypermyelinated mouse model. The fluorescent signals were recorded at 2, 4, 6, 8, 10, 15, 20, 25, 30, 40, 50, 60, 70, 80, 90, 100, 110 and 120 min after i.v. injection of CNIR and the vehicle (0.05% DMSO/PBS (V/V)).

myelin sheaths = assay: In vitro fluorescent tissue staining of mouse brain sections; assay type: binding; settings: compared with MBP antibody
[5] = Fluorescent excitation and emission spectra; assay type: physicochemical; settings: 100 nM in DMSO
Procedure: The fluorescent excitation and emission spectrum is recorded using Varian fluorescent spectroscopy at the concentration of […] in DMSO.
The excitation and emission spectra of CNP were recorded using Cary Eclipse Fluorescence Spectrophotometers (Varian, Inc.; Palo Alto, Calif.) at 25° C. in DMSO, at a concentration of 100 nM. The excitation and emission slits were 5 nm, the scan rate was 600 nm/min, and the data interval was 1 nm.

[6] = system: LPC induced demyelination lesion; assay: CNP staining of rat brain sections after imaging in the focal demyelination model; assay type: binding; settings: LPC-rats versus saline-rats, compared with Black-Gold II
Procedure: Focal demyelination of adult rat brain. Sprague Dawley female rats (Harlan Laboratory, Indianapolis, Ind.), 12 weeks of age, were used for this study. Animal surgery and care was performed in accordance with the Institutional Animal Care and Use Committee of Case Western Reserve University Animals were anesthetized using a mixture of ketamine hydrochloride (64.2 mg/kg), xylazine hydrochloride (12.9 mg/kg), and acepromazine (12.9 mg/kg) and positioned in a stereotaxic frame (Stoelting). […]
Fresh frozen section: Mice or rats were deeply anesthetized with isoflurane and perfused via the ascending aorta with PBS followed by 4% paraformaldehyde in PBS. […] Tissue from the midline of the brain containing the whole corpus callosum was selected for staining Stained sections were covered with fluorescence mounting medium (Vectashield; Vector Laboratories, Burlingame, Calif.) and stored at 4° C. for future analysis.
Fresh frozen sections with 20 μm thickness were incubated in 0.1% Triton-100 in 1×PBS for 10 min, which was followed by incubation in a solution of CNP (1 mM) in 1% DMSO/1×PBS for 30 min at room temperature. The fresh frozen sections were then washed three times for 5 min each with 1×PBS before cover-slipping with fluorescence mounting medium (Vectashield, Vector laboratories). […]

MBP = assay: CNP staining followed by MBP antibody staining in the same brain tissue sections; assay type: binding, mouse; settings: cerebellum, frontal cortex, caudate putamen; CNP 1 mM
Procedure: After incubation with 3% normal goat serum in 1×PBS for 60 min, the fresh frozen sections were immunostained overnight at 4° C. with purified SMI99 mouse monoclonal anti-MBP (Covance, Inc. Princeton, N.J.) 1:500 dilution in 3% normal goat serum in 1×PBS, followed by one hour incubation at room temperature with Fluorescein (FITC) AffiniPure Goat Anti-Mouse IgG (H=L) (Jackson ImmunoResearch Laboratories, Inc. West Grove, Pa.) 1:500 dilution, then rinsed in 1×PBS (2×5′). The stained sections were covered with fluorescence mounting medium (Vectashield, Vector laboratories). Images of the stained mouse brain sections were acquired on a Leica DM5000 inverted microscope (L5 filter, BP 527/30).
Fresh frozen sections with 20 μm thickness were incubated in 0.1% Triton-100 in 1×PBS for 10 min, which was followed by incubation in a solution of CNP (1 mM) in 1% DMSO/1×PBS for 30 min at room temperature. The fresh frozen sections were then washed three times for 5 min each with 1×PBS before cover-slipping with fluorescence mounting medium (Vectashield, Vector laboratories). Images of the stained mouse brain sections were acquired on a Leica DMI5000 inverted microscope (Y5 filter, BP 700/75).
To determine the exact binding sites of CNP, we compared both CNP and MBP staining conducted in the same brain tissue sections. […]

[7] = corpus callosum, 0-60 min microPET

Row | Compound | uptake in control rat brain compared with demyelinated rat brain (myelin [1]; corpus callosum ROI, 60 min microPET scan) | average SUV in demyelinated region, lower than control myelinated region (myelin [1]; [7]) [%] | average SUV in demyelinated region, lower than remyelinated region (myelin [1]; [7]) [%] | localization in brain (myelin [1]; white matter versus gray matter) | brain permeability [2] | fluorescent radiance / average fluorescent intensity in Plp-Akt-DD mice compared with wild-type mice (myelin [3]; 2-120 min post injection) | clearance in wild-type control mice (myelin [3]; brain fluorescence) | clearance in hypermyelinated (Plp-Akt-DD) mice (myelin [3]; brain fluorescence, compared to WT) | fluorescent intensities in the brain, shiverer versus wild-type mice (myelin [4]) | time of peak fluorescent signal in shiverer mice (myelin [4]) [min] | average radiance in wild-type mice relative to shiverer mice (myelin [4]) | labeling of myelin sheaths in wild-type mouse brain sections (myelin sheaths; 1 μM, free floating sections) | maximal emission wavelength [5] [nm] | maximal excitation wavelength [5] [nm] | detection of demyelination lesion in brain sections [6] | antibody staining of MBP after CNP staining of the same section (MBP) | brain entry (myelin [4]; summary statement at the head of Example 1) | labeling of myelin sheaths in wild-type mouse brain sections (myelin sheaths; 100 μM, fresh frozen sections) | labeling of myelin sheaths in wild-type and shiverer mouse brain sections (myelin sheaths; 1 mM, fresh frozen sections)
1 | COc1cccc(C[n+]2c(/C=C/C=C/C=C/C=C3/Sc4ccccc4N3Cc3cccc(O[11CH3])c3)sc3ccccc32)c1 [[^11C] CNP] | significantly higher | 40 | 20 | preferentially localizes in the myelin-rich white matter | – | – | – | – | – | – | – | – | – | – | – | – | – | – | –
2 | CCN1\C(=C/C=C/C=C/C=C/c2sc3ccccc3[n+]2CC)Sc2ccccc21.[I-] [CNIR, 3,3′Diethylthiatricarbocyanine iodide] | – | – | – | – | can readily penetrate the intact blood-brain barrier | much stronger; also recorded: higher | fast clearance | relatively slower clearance | significant different | 2 | eightfold greater | selectively labeled intact myelin sheaths | 797 | 782 | – | – | – | – | –
3 | COc1cccc(CN2\C(=C/C=C/C=C/C=C/c3sc4ccccc4[n+]3Cc3cccc(OC)c3)Sc3ccccc32)c1.[Br-] [CNP] | – | – | – | – | – | – | – | – | significantly different | 5 | four fold greater | – | – | – | can detect the LPC induced demyelination lesion | significantly blocked | readily enters the brain | bind specifically to myelin sheaths | selectively labeled intact myelin sheaths
